Kb data for 1 compound are collected here from article PMC7468670, “Biophysical Insight into the Interaction of Human Lysozyme with Anticancer Drug Anastrozole: A Multitechnique Approach” (The Scientific World Journal, 2020).

This test concerns the target T1, Human lysozyme (HL) (Homo sapiens, UniProt P61626).
T1 construct: gene LYZ; commercial human lysozyme (Sigma-Aldrich), dialysed; single polypeptide, no subunits; 1REX used for docking only
T1 sequence (P61626 19-148): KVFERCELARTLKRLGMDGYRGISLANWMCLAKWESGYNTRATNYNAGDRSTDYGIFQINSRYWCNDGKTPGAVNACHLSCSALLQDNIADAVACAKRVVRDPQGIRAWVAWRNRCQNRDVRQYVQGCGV
Put plainly: intrinsic fluorescence quenching, modified Stern-Volmer. It is filed as binding. Particulars: 20 mM sodium phosphate pH 7.4, 310 K, 5 uM HL, excitation 280 nm; n = 1.00; double-log. From the text: intrinsic fluorescence quenching, modified Stern-Volmer on Human lysozyme (HL)

SMILES strings stand for the structures.

In turn, `CC(C)(C#N)c1cc(Cn2cncn2)cc(C(C)(C)C#N)c1` [anastrozole] returned a Kb of 9660 M⁻¹.
